# How the values were obtained:
# [1] = Water solubility in cold water; type: physicochemical
# Protocol: Commercially available derivatives are obtained from Sigma-Aldrich (St. Louis, Mo.). The methods used for the synthesis of methyl- and sulfur-derivatives of uric acid are similar to those described previously (Beaman et al., J. Org. Chem., 27, 986-990 (1962) and Maruyama et al., Nucleosides, Nucleotides, Nucleic Acids, 19, 1193-1203 (2000)) and structures are confirmed by ^13C nuclear magnetic resonance (NMR) and ultra-violet (UV) spectral analyses. Uric acid analogs are assayed by high performance liquid chromatography (HPLC) and found to be of >97% purity.
# [2] = Pharmacokinetics: plasma and brain levels after intravenous administration; type: in vivo, C57BL/6 mice; settings: mice
# Protocol: Mice are administered intravenously 10 mg/kg ([…]) of uric acid as a reference compound and equimolar doses of its analogs (sUA4-2,6,8 trithio uric acid, 12.9 mg/kg; mUA2-1,7 dimethyl uric acid, 11.7 mg/kg; sUA2-6,8 dithio uric acid, 11.9 mg/kg). Three month-old male C57BL/6 mice are injected with a compound and are euthanized 15, 30, 60 or 120 min later (1 mouse/time point/compound). Blood and brain tissues are rapidly removed, frozen on dry ice and kept at −80° C. before quantification of uric acid analogs. Plasma and cerebral cortical tissues are extracted in 10 volumes of 0.5 M perchloric acid and 1 mM ethylenediamine tetraacetic acid (EDTA). Levels of uric acid analogs in the extracts are quantified by HPLC methods employing a 25 cm RP C18 column, 25 mM KH2PO4 buffer (pH=4.6) with 1 ml/min flow rate and UV diode array detection.
# Mice that are administered mUA2, sUA2 or sUA4 intravenously are euthanized at increasing time points (15, 30, 60 and 120 min) and levels of the compounds in plasma and brain tissue are measured.
# [3] = tested on: cultured hippocampal neurons; test: Oxygen and glucose deprivation (OGD) of cultured hippocampal neurons; type: cell-based, rat; settings: compared to neurons in control cultures; FIG. 2
# Protocol: FIG. 2 illustrates that compounds of formula (I) protect cultured hippocampal neurons against ischemia-like conditions in an embodiment of the invention. Neuronal survival is quantified and values are the mean and SEM (n=8-10 cultures). *p<0.05 compared to the vehicle/OGD cultures. Synaptosomes are prepared from the cerebral cortex of 2-3 month-old adult male Sprague-Dawley rats and are cryopreserved using methods described previously (Begley et al., Brain Res. Protoc., 3, 76-82 (1998)). After thawing, cryopreserved synaptosomes are washed twice with Locke's buffer and plated in 24-well plates at a protein concentration of 250 μg per well. After a 30 min period to permit attachment of the synaptosomes to the substrate, synaptomoses are incubated for 1 h with compounds of formula (I) (1-10 μM), and then exposed for 4 h to freshly prepared 50 μM Fe^2+ (FeSO4). After an additional 30 min incubation in the presence of 10 μM dihydrorhodamine 123 (DHR), a probe for ROS which fluoresces when oxidized (Keller et al., J. Neurochem., 69, 273-284 (1997)), the synaptosomes are washed twice with Locke's buffer and levels of fluorescence are quantified using a fluorescence plate reader (488 nm excitation and 510 emission wavelengths). Fluorescence values for wells exposed to experimental treatments are expressed as a percentage of the mean value for untreated control wells. […] Methods for preparation and maintenance of cultures of PC12 cells and primary embryonic rat hippocampal neurons have been described previously (Furukawa et al., J. Neurosci., 17, 8178-8186 (1997) and Chan et al., J. Biol. Chem., 279, 28733-28743 (2004)). Cells are plated into polyethylenimine-coated plastic 96-well culture plates containing Neurobasal medium with B27 supplements. Experiments are performed in 7-8 day-old cultures (hippocampal neurons) or Dulbecco's modified eagle's medium (DMEM) with 10% fetal bovine serum (PC12 cells). […] Cell viability is quantified by counting viable neurons in premarked microscope fields prior to and following experimental treatment and then calculating percent survival.
# [4] = tested on: mouse model of focal ischemic stroke; test: Focal cerebral ischemia-reperfusion (middle cerebral artery occlusion) model; type: in vivo, C57BL/6 mice; settings: administered 1 h after ischemia onset
# Protocol: FIG. 4 illustrates that a compound of formula (I) improves functional outcome (e.g., ambulation) and reduces brain damage in a mouse model of focal ischemic stroke in an embodiment of the invention. In FIG. 4A neurological function is scored at 24, 48 and 72 hours post-stroke. In FIG. 4B infarct volume is quantified at 72 hours post-stroke. Values are the mean and SEM (n=8-12 mice). *p<0.001 compared to sham. +p<0.01 compared to vehicle.
# FIG. 5 illustrates that compounds of formula (I) improve functional outcome and reduces brain damage in a mouse model of focal ischemic stroke in an embodiment of the invention. In FIG. 5A, neurological function is scored at 24, 48 and 72 hours post-stroke. In FIG. 5B, infarct volume is quantified at 72 hours post-stroke. Values are the mean and SEM (n=8-12 mice). *p<0.001 compared to sham. +p<0.01 compared to vehicle.
# Three month-old male C57BL/6 mice are maintained on a 12 h light/12 h dark cycle with continuous access to food and water. The method for subjecting the mice to middle cerebral artery occlusion-reperfusion has been described previously (Arumugam et al., Am. J. Physiol. Heart Circ. Physiol., 287, H2555-2560 (2004)). Mice are anesthetized with isofluorane, a midline incision is made in the neck, and the left external carotid and pterygopalatine arteries are isolated and ligated with 5-0 silk thread. The internal carotid artery (ICA) is occluded at the peripheral site of the bifurcation of the internal carotid artery and the pterygopalatine artery with a small clip and the common carotid artery is ligated with 5-0 silk thread. The external carotid artery is cut, and a 6-0 nylon monofilament with a tip that is blunted (0.2-0.22 mm) with a coagulator is inserted into the external carotid artery. After the clip at the ICA is removed, the nylon thread is advanced into the middle cerebral artery until light resistance is felt. The nylon thread and the common carotid artery ligature are removed after 1 h of occlusion to initiate reperfusion. In the sham group, these arteries are visualized but not disturbed. Mice are administered either uric acid analogs of formula (I) or vehicle (dimethylsulfoxide) by infusion into the femoral vein (10 μl infused over a 2 min period) either 30 min prior to or 60 min after the onset of middle cerebral artery (MCA) occlusion. In a separate set of experiments anesthetized animals from all groups (4-6 mice per group) undergo cerebral blood flow (CBF) measurements using a laser Doppler perfusion monitor. All blood flow measurements are conducted with the mouse fixed in a plastic frame with the probe placed in the region of cerebral cortex perfused by the middle cerebral artery. These procedures are approved by the National Institute on Aging Animal Care and Use Committee.
# The functional consequences of focal cerebral ischemia-reperfusion injury are evaluated by using a five-point neurological deficit score (0, no deficit; 1, failure to extend right paw; 2, circling to the right; 3, falling to the right; and 4, unable to walk spontaneously) and are assessed in a blinded fashion. At 72 h of reperfusion, the mice are killed with a lethal dose of isofluorane. The brains are immediately removed and placed into PBS (4° C.) for 15 min, and 2-mm coronal sections are cut with a tissue cutter. The brain sections are stained with 2% 2,3,5-triphenyltetrazolium chloride in phosphate buffer at 37° C. for 15 min. The stained sections are photographed, and the digitized images are used for analysis. The borders of the infarct in each brain slice are outlined and the area quantified using a NIH image 6.1 software. To correct for brain swelling, the infarct area is determined by subtracting the area of undamaged tissue in the left hemisphere from that of the intact contralateral hemisphere. Infarct volume is calculated by integration of infarct areas for all slices of each brain.
# [5] = tested on: skin wound; test: Punch biopsy wound healing model; type: in vivo, C57BL/6 mice; settings: single topical dose at time of wounding; on average; saline control greater than 13 days
# Source text: A defined wound is created with a 4 mm Accuderm human punch biopsy kit (Accuderm, Ft Lauderdale, Fla.) in C57BL/6 mice. Specifically, the loose skin on the back of a mouse was brought together and, under anesthetic, a single punch was made through either side to create two wounds through the skin alone—without affecting underlying tissue. Immediately post-wounding, the wounds are either treated topically with normal saline (to serve as the non-treated control group) or with a compound of formula (I). Each day the wounds are digitally photographed and wound areas are determined by computer integration of the photographs. Wound area at the time of wounding (day 0) is arbitrarily set to a relative value of 1 for all wounds; such that subsequent wound areas are converted to relative wound areas by dividing the wound area at day n by the wound area at day zero.
compound,measurement,setting,value
"O=c1[nH]c(=S)c2[nH]c(=S)[nH]c2[nH]1 [sUA2, 6,8 dithio uric acid]",solubility,[1],2000 µg/mL
same,Kp,"[2]; male, C57BL/6, mouse, brain (cerebral cortical tissue) / plasma, early time points (15-30 min), read-out: brain tissue concentration as percentage of plasma concentration",~0.1
same,detection in the brain,"[2]; equimolar to 10 mg/kg uric acid, 15, 30, 60 and 120 min",detected in the brain at all time points examined
same,brain concentration time course versus plasma,[2]; through the 120 min time point,remain elevated while plasma concentrations decrease progressively
same,resistance to OGD induced death,[3],significantly more resistant
same,functional outcome (neurological deficit score),[4]; FIG. 5A,significantly improve functional outcome
same,brain damage,[4]; FIG. 5B,decrease brain damage
same,time to wound closure post wounding,[5],8 days

# Reference: patent publication US20100105707A1, “METHOD OF TREATING OR PREVENTING OXIDATIVE STRESS-RELATED DISEASE” (The United States of America, priority 2006, published 2010)
